In PubChem BioAssay AID248 (DTP/NCI, 2004):
Toxic doses and inconclusive results are not listed. No stated cut-off is given here; in the data, active means T/C of 150% or more; inactive means T/C below 125%.

System: L1210 leukemia ip in BDF1 mice, survival T/C
Assay: NCI In Vivo Anticancer Drug Screen. Data for tumor model L1210 Leukemia (intraperitoneal) in B6D2F1 (BDF1) mice
Conditions: endpoint: mean survival time, higher = longer survival
Outline: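 In this screen, tumor-bearing mice given compound are compared to those given vehicle, and their survival values are reported as a treated-to-control quotient.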

[1] = dose: 100.0 mg/kg/injection, schedule: Q01DX001 (ip), vehicle: saline
[2] = dose: 200.0 mg/kg/injection, schedule: Q01DX001 (ip), vehicle: saline
[3] = dose: 400.0 mg/kg/injection, schedule: Q01DX001 (ip), vehicle: saline
[4] = dose: 100.0 mg/kg/injection, schedule: Q01DX001 (ip), vehicle: saline with Tween-80
[5] = dose: 200.0 mg/kg/injection, schedule: Q01DX001 (ip), vehicle: saline with Tween-80
[6] = dose: 400.0 mg/kg/injection, schedule: Q01DX001 (ip), vehicle: saline with Tween-80
[7] = dose: 50.0 mg/kg/injection, schedule: Q01DX001 (ip), vehicle: saline
[8] = dose: 25.0 mg/kg/injection, schedule: Q01DX009 (ip), vehicle: saline
[9] = dose: 50.0 mg/kg/injection, schedule: Q01DX009 (ip), vehicle: saline
[10] = dose: 100.0 mg/kg/injection, schedule: Q01DX009 (ip), vehicle: saline
[11] = dose: 100.0 mg/kg/injection, schedule: Q04DX003 (ip), vehicle: saline
[12] = dose: 100.0 mg/kg/injection, schedule: Q01DX001 (ip), vehicle: carboxymethylcellulose (CMC)
[13] = dose: 200.0 mg/kg/injection, schedule: Q01DX001 (ip), vehicle: carboxymethylcellulose (CMC)
[14] = dose: 100.0 mg/kg/injection, schedule: Q01DX009 (ip), vehicle: saline with Tween-80
[15] = dose: 200.0 mg/kg/injection, schedule: Q01DX009 (ip), vehicle: saline with Tween-80
[16] = dose: 100.0 mg/kg/injection, schedule: Q04DX003 (ip), vehicle: Klucel (hydroxypropylcellulose) (HPC)
[17] = dose: 200.0 mg/kg/injection, schedule: Q04DX003 (ip), vehicle: Klucel (hydroxypropylcellulose) (HPC)
[18] = dose: 400.0 mg/kg/injection, schedule: Q04DX003 (ip), vehicle: Klucel (hydroxypropylcellulose) (HPC)
[19] = dose: 100.0 mg/kg/injection, schedule: Q04DX003 (ip), vehicle: saline with Tween-80
[20] = dose: 200.0 mg/kg/injection, schedule: Q04DX003 (ip), vehicle: saline with Tween-80
[21] = dose: 400.0 mg/kg/injection, schedule: Q04DX003 (ip), vehicle: saline with Tween-80

Measured: T/C

Cc1cccc(/C=C2/SC(=S)N(c3ccccc3)C2=O)c1
inactive: [1] 100 % of control | [2] 98 % of control | [3] 105 % of control

C[S+]1C=Cc2ccccc2C1c1ccc(Cl)cc1 (centres undefined)
inactive: dose: 25.0 mg/kg/injection, schedule: Q04DX002 (ip), vehicle: Klucel (hydroxypropylcellulose) (HPC) 117 % of control

O=C1C2C=CC=CC1C1C=CC2C1
inactive: [4] 93 % of control | [5] 104 % of control | [6] 101 % of control

CC(C)(C#N)CCCCC(C)(C)C#N
inactive: [7] 105 % of control | [1] 108 % of control | [2] 102 % of control | [3] 100 % of control

S=C(n1ccnc1)n1ccnc1
inactive: [8] 100 % of control | dose: 25.0 mg/kg/injection, schedule: Q04DX003 (ip), vehicle: saline 106 % of control | [9] 95 % of control | dose: 50.0 mg/kg/injection, schedule: Q04DX003 (ip), vehicle: saline 105 % of control | [10] 103 % of control | [11] 103 % of control | dose: 150.0 mg/kg/injection, schedule: Q01DX009 (ip), vehicle: saline 94 % of control | dose: 225.0 mg/kg/injection, schedule: Q01DX009 (ip), vehicle: saline 92 % of control

CCCCCCCCCCCCCCCCS(=O)(=O)N/N=C/c1ccccc1O
inactive: [12] 95 % of control | [13] 98 % of control

CC(=O)NC1CCCC(C)C1 (centres undefined)
inactive: [14] 101 % of control | [15] 106 % of control

O=C(NCCBr)Nc1cccc2c1Cc1ccccc1-2
inactive: dose: 100.0 mg/kg/injection, schedule: Q01DX009 (ip), vehicle: Klucel (hydroxypropylcellulose) (HPC) 105 % of control | [16] 95 % of control | dose: 200.0 mg/kg/injection, schedule: Q01DX009 (ip), vehicle: Klucel (hydroxypropylcellulose) (HPC) 96 % of control | [17] 95 % of control | dose: 400.0 mg/kg/injection, schedule: Q01DX009 (ip), vehicle: Klucel (hydroxypropylcellulose) (HPC) 94 % of control | [18] 97 % of control

Nc1nc(CNc2ccc(Cl)cc2)nc(Nc2ccccc2)n1
inactive: [19] 93 % of control | [20] 89 % of control | [21] 89 % of control

CCOC(=O)c1c(N)cc(=O)[nH]c1O
inactive: dose: 75.0 mg/kg/injection, schedule: Q01DX001 (ip), vehicle: saline 101 % of control | dose: 150.0 mg/kg/injection, schedule: Q01DX001 (ip), vehicle: saline 98 % of control | dose: 300.0 mg/kg/injection, schedule: Q01DX001 (ip), vehicle: saline 95 % of control

CC1=NN(c2ccc(S(=O)(=O)O)cc2)C(=O)/C1=C/C(C#N)C#N
inactive: [7] 105 % of control | [1] 98 % of control | [16] 92 % of control | [2] 108 % of control | [17] 105 % of control | [3] 108 % of control | [18] 94 % of control

C#CCSC(=N)N
inactive: [8] 101 % of control | [9] 93 % of control | [11] 103 % of control

CC1(O)CC(=O)C2C3C=CC(C3)C21 (centres undefined)
inactive: dose: 75.0 mg/kg/injection, schedule: Q01DX001 (ip), vehicle: other 98 % of control | dose: 150.0 mg/kg/injection, schedule: Q01DX001 (ip), vehicle: other 104 % of control

Cc1[nH]c(=O)[nH]c(=O)c1CN1CCOCC1
inactive: [19] 102 % of control | [20] 113 % of control | [21] 100 % of control

COc1cccc(CC(C(=O)c2ccc(O)cc2)c2ccccc2)c1 (centres undefined)
inactive: [1] 97 % of control | [2] 97 % of control | [3] 101 % of control

CCCOC(=O)C(CC(C)(C)C)CC(C)(C)C
inactive: [1] 104 % of control | [2] 104 % of control | [3] 101 % of control

CCCCCCCCCCCCCCCCCCNC(=O)Nc1ccccc1OC
inactive: dose: 100.0 mg/kg/injection, schedule: Q04DX002 (ip), vehicle: Klucel (hydroxypropylcellulose) (HPC) 101 % of control | dose: 200.0 mg/kg/injection, schedule: Q04DX002 (ip), vehicle: Klucel (hydroxypropylcellulose) (HPC) 107 % of control | dose: 400.0 mg/kg/injection, schedule: Q04DX002 (ip), vehicle: Klucel (hydroxypropylcellulose) (HPC) 96 % of control

CC(NN)c1ccccc1 (centres undefined)
inactive: [7] 101 % of control | [1] 105 % of control

O=C1C2ON=C(c3ccccc3)C2C(=O)N1OS(=O)(=O)c1ccccc1 (centres undefined)
inactive: [14] 98 % of control | [19] 103 % of control | [15] 92 % of control | [20] 102 % of control | dose: 400.0 mg/kg/injection, schedule: Q01DX009 (ip), vehicle: saline with Tween-80 88 % of control | [21] 90 % of control

O=S(c1cc(Cl)cc(Cl)c1O)c1cc(Cl)cc(Cl)c1O
inactive: dose: 50.0 mg/kg/injection, schedule: Q01DX001 (ip), vehicle: carboxymethylcellulose (CMC) 95 % of control | [12] 98 % of control | [13] 101 % of control | dose: 400.0 mg/kg/injection, schedule: Q01DX001 (ip), vehicle: carboxymethylcellulose (CMC) 114 % of control

COc1cc2c(cc1OCc1ccccc1)C=CN(C(=O)c1ccccc1)C2C#N (centres undefined)
inactive: [8] 100 % of control | [9] 94 % of control | [10] 94 % of control | dose: 200.0 mg/kg/injection, schedule: Q01DX009 (ip), vehicle: saline 93 % of control | dose: 400.0 mg/kg/injection, schedule: Q01DX009 (ip), vehicle: saline 98 % of control

Cc1cc(C)cc(C(C)(C)C)c1
inactive: [19] 92 % of control | [20] 92 % of control | [21] 95 % of control

CNN
inactive: dose: 20.0 mg/kg/injection, schedule: Q04DX003 (ip), vehicle: saline 101 % of control | [8] 103 % of control | dose: 40.0 mg/kg/injection, schedule: Q04DX003 (ip), vehicle: saline 121 % of control | dose: 80.0 mg/kg/injection, schedule: Q04DX003 (ip), vehicle: saline 111 % of control | [11] 96 % of control

Cc1[nH]nc(C(=O)O)c1Br
inactive: dose: 25.0 mg/kg/injection, schedule: Q01DX005 (ip), vehicle: saline 100 % of control | dose: 50.0 mg/kg/injection, schedule: Q01DX005 (ip), vehicle: saline 105 % of control | dose: 100.0 mg/kg/injection, schedule: Q01DX005 (ip), vehicle: saline 122 % of control | dose: 200.0 mg/kg/injection, schedule: Q01DX005 (ip), vehicle: saline 102 % of control | dose: 400.0 mg/kg/injection, schedule: Q01DX005 (ip), vehicle: saline 113 % of control

CC(c1ccccc1)C1CCCCC1 (centres undefined)
inactive: [4] 96 % of control | [5] 96 % of control | [6] 91 % of control

O=C1c2ccccc2C(=O)N1CCCCCCCCCCCCCCN1C(=O)c2ccccc2C1=O
inactive: dose: 100.0 mg/kg/injection, schedule: Q01DX001 (ip), vehicle: Klucel (hydroxypropylcellulose) (HPC) 94 % of control | dose: 200.0 mg/kg/injection, schedule: Q01DX001 (ip), vehicle: Klucel (hydroxypropylcellulose) (HPC) 94 % of control
